According to ChEMBL document CHEMBL5154925, “Design and Optimization of Thienopyrimidine Derivatives as Potent and Selective PI3Kδ Inhibitors for the Treatment of B-Cell Malignancies” (J Med Chem, 2022):
Converted amounts (≈) assume the structure as drawn.

Test: Solubility of the compound in PBS
Type: physicochemical

CCC(=O)N1CC[C@H](Nc2ncnc3sc(-c4cnc(OC)c(OC)c4)cc23)C1
solubility: 44.5 µM (≈ 18.4 µg/mL)
